Data published in publication PMC6458850, “CXXC5 mediates growth plate senescence and is a target for enhancement of longitudinal bone growth” (Life Science Alliance, 2019).

Key:
CXXC5–DVL interaction = molecular target: T1, CXXC5–DVL interaction (Homo sapiens, UniProt O14640); experiment: In vitro CXXC5–DVL binding assay (FITC-tagged PTD-DBMP on DVL PDZ domain); conditions: dose–response curve, n = 3
T1 sequence (O14640 251-340 limits assumed): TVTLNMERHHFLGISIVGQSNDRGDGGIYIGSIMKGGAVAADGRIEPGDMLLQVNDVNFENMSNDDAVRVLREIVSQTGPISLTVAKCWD
Procedure: After the addition of 10 μM FITC-tagged PTD-DBMP to each well, each compound in the chemical library or control (DMSO) was treated to the well at a final concentration of 30 μM. The fluorescence intensity was measured using a Fluorstar Optima microplate reader (BGM Lab Technologies, Ortenberg, Germany). The binding values were calculated as a percent ratio of the fluorescent intensity normalized to the DMSO-treated control.

GSK3β (human) = GSK3β (human) (Homo sapiens, UniProt P49841); experiment: GSK3β kinase assay; type: biochemical; conditions: dose–response curve, n = 3; read-out: IC50, in vitro GSK3β activity
Procedure: GSK3β (human) was incubated with 8 mM MOPS (pH 7.0), 0.2 mM EDTA, 20 μM […](p) EDEEE (phospho-GS2 peptide), 10 mM Mg acetate, and [γ-33P-ATP] (specific activity ∼500 cpm/pmol, concentration as required). The reaction was initiated by the addition of the Mg-ATP mixture. After incubation for 40 min at room temperature, the reaction was stopped by addition of 3% phosphoric acid solution. 10 μl of the reaction was then spotted onto a P30 filtermat and washed three times for 5 min in 50 mM phosphoric acid and once in methanol before drying and scintillation counting.

ATDC5 cells = experiment: Chondrocyte proliferation, differentiation and Wnt/β-catenin signaling in ATDC5 cells; type: cell-based, mouse
Procedure: Figure S7. The effects of KY19382 on chondrocyte proliferation and differentiation. (A) ATDC5 cells treated with 0.01 or 0.1 μM concentrations of KY19382 were incubated for 48 h followed by treatment with 50 μM BrdU for 12 h before harvesting. BrdU incorporation was visualized by immunofluorescent staining using a specific BrdU antibody (left). BrdU-positive cells were quantified (mean ± SEM, n = 3; ANOVA, P = 7.8 × 10^−5; Tukey’s post-hoc test, *P < 0.05 and ***P < 0.0005) (right). Scale bar, 100 μm. (B) qRT-PCR analyses of mRNA levels of chondrogenic differentiation markers in ATDC5 cells incubated with 0.1 μM KY19382 for 3 d in three-dimensional alginate beads after transfection with control siRNA or Ctnnb1 siRNA (mean ± SEM, n = 3; t test, *P < 0.05, **P < 0.005, and ***P < 0.0005). (C) qRT-PCR analyses of mRNA levels of chondrogenic differentiation markers in C28/I2 cells incubated with 1 μM KY19382 for 3 d in three-dimensional alginate beads (mean ± SEM, n = 3; t test, *P < 0.05 and ***P < 0.0005). n.s., no significance.
Figure S8. qRT-PCR analyses for target-specificity of KY19382. qRT-PCR analyses of mRNA levels of pathway-specific target genes in ATDC5 cells treated with 0.01 or 0.1 μM concentrations of KY19382 for 4 h (mean ± SEM, n = 3; ANOVA and Tukey’s post-hoc test, *P < 0.05 and **P < 0.005 versus DMSO-treated control). n.s., no significance versus DMSO-treated control.
The mouse chondrogenic cell line, ATDC5, was obtained from the RIKEN Cell Bank. The human juvenile costal chondrocyte cell line, C28/I2, was provided by Dr. W U Kim (Catholic University, Korea). HEK293-TOP cells (HEK293 cells containing the chromosomally incorporated TOPFlash gene) were provided by Dr. S Oh (Kuk Min University, Korea). ATDC5 cells were maintained in DMEM/F12 (1:1) (Gibco) supplemented with 5% FBS (Gibco). To induce hypertrophic differentiation, ATDC5 cells were incubated with insulin–transferrin–sodium selenite supplement (Gibco) in three-dimensional alginate beads for 3 d, as described previously ([Kawasaki et al, 2008]). C28/I2 and HEK293-TOP cells were maintained in DMEM (Gibco) containing 10% FBS. All chemicals were dissolved in dimethyl sulfoxide (DMSO; Sigma-Aldrich) for the in vitro studies. For E2 (17β-estradiol; Sigma-Aldrich) treatment, the cells were cultured in phenol red–free DMEM/F12 with 5% charcoal-stripped FBS for 24 h followed by serum-free medium for 24 h before the experiment. The PTD-DBMP was synthesized by Peptide 2.0 Inc.
ATDC5 or C28/I2 cells were seeded on glass coverslip in 12-well culture plates. The cells were washed with PBS and fixed with 4% PFA at room temperature for 15 min. After permeabilization with 0.1% Triton X-100 for 15 min and blocking with 5% BSA for 1 h, the cells were incubated with primary antibodies specific for β-catenin (1:100) or CXXC5 (1:200) at 4°C overnight. The cells were washed in PBS and incubated with Alexa Fluor 488 or Alexa Fluor 555 secondary antibodies (1:200) at room temperature for 1 h. Cell nuclei were counterstained with DAPI for 10 min and the stained samples were examined under an LSM700 META microscope using 405-, 488-, or 543-nm excitation wavelengths. For BrdU assay, the cultured cells were incubated with BrdU solution (25 μM) overnight, followed by immunocytochemical staining with antibody against BrdU (1:100).
Immunoprecipitation was performed as previously described ([Kim et al, 2015]). To monitor the protein–protein interactions, 1 mg of WCLs were incubated with anti-DVL1 and protein G agarose beads (GenDEPOT) or anti-Myc and protein A agarose beads (GenDEPOT) at 4°C for 16 h, and the beads were then washed three times in RIPA buffer. The resulting immune complexes were resolved by SDS–PAGE, and immunoblotting was performed with the indicated antibodies.
Total RNA was extracted using Trizol reagent (Invitrogen) according to the manufacturer’s instructions. […]

[1] = ATDC5 cells, 0.01 or 0.1 μM, 4 h

Chain of GSK3β (human) (P49841 whole entry): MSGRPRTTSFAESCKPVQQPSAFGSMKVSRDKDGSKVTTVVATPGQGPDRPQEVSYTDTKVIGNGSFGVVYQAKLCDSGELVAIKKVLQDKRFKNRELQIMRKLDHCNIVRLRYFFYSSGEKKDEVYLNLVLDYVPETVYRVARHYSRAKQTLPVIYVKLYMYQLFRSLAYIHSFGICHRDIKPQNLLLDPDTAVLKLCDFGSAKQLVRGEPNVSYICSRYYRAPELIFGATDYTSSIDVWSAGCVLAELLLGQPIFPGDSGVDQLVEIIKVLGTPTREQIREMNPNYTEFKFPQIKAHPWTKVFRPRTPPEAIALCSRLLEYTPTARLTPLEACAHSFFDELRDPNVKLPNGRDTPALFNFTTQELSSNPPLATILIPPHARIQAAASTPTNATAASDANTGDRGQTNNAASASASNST

- IC50 (CXXC5–DVL interaction): 0.019 µM
- IC50 (GSK3β (human)): 0.01 µM
Structure (SMILES): CON=C1C(=C2C(=O)Nc3cc(Cl)c(Cl)cc32)Nc2ccccc21 [KY19382, 5,6-dichloroindirubin-3′-methoxime]
- BrdU-positive ATDC5 cells (ATDC5 cells; 0.01 or 0.1 μM, 48 h): enhanced number
- CXXC5–DVL interaction (immunoprecipitation) (ATDC5 cells; ATDC5 cells transfected with FLAG-DVL1 and CXXC5-Myc, 0.1 μM, 4 h): interruption
- nuclear translocation of β-catenin (ATDC5 cells; ATDC5 cells, 0.1 μM, 48 h): elevated nuclear translocation
- mRNA levels of chondrogenic markers (ATDC5 cells; ATDC5 cells, 0.1 μM, 3 d, alginate beads): up-regulated
- expression levels of Wnt/β-catenin target genes (Wisp1, Axin2) (ATDC5 cells; [1]): markedly increased
- expression of 19 other genes that respond to other pathways (off-target effects) (ATDC5 cells; [1]): not significantly altered
- concentration sufficient to promote activation of Wnt/β-catenin pathway in vitro (ATDC5 cells; Fig 4E and Fig S8): 0.01 µM
